According to ChEMBL document CHEMBL3861948 (Medchemcomm, 2016):

Molecular target: Mitogen-activated protein kinase 14 (Homo sapiens, UniProt Q16539)
Experiment: Inhibition of p38alpha in human THP1 cells assessed as suppression of LPS-induced TNFalpha secretion preincubated for 30 mins followed by LPS challenge measured after 2 hrs
Assay type: cell-based, THP-1

Mitogen-activated protein kinase 14, sequence (Q16539 whole entry): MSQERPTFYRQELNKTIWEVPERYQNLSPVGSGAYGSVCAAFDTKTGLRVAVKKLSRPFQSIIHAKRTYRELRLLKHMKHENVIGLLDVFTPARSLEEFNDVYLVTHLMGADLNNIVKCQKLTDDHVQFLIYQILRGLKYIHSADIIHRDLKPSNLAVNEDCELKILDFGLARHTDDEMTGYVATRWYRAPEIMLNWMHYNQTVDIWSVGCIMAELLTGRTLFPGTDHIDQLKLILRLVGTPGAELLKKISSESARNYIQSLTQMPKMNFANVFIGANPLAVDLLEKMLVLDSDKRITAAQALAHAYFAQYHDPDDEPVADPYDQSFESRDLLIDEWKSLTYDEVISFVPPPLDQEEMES

IC50	Compound
44 nM	NC(=O)[C@H](CCC1CCCCC1)NC(=O)[C@H]1CC[C@H](CNC(=O)c2cnn(-c3ccccc3)c2N)CC1
46 nM	CNC(=O)[C@H](Cc1cccc(C(F)(F)F)c1)NC(=O)c1ccc(CNC(=O)c2cnn(-c3ccccc3)c2N)cc1
